Test [1] concerns the target T1, thioredoxin reductase (TrxR) (Homo sapiens, UniProt Q16881).
T1 sequence (Q16881 1-649): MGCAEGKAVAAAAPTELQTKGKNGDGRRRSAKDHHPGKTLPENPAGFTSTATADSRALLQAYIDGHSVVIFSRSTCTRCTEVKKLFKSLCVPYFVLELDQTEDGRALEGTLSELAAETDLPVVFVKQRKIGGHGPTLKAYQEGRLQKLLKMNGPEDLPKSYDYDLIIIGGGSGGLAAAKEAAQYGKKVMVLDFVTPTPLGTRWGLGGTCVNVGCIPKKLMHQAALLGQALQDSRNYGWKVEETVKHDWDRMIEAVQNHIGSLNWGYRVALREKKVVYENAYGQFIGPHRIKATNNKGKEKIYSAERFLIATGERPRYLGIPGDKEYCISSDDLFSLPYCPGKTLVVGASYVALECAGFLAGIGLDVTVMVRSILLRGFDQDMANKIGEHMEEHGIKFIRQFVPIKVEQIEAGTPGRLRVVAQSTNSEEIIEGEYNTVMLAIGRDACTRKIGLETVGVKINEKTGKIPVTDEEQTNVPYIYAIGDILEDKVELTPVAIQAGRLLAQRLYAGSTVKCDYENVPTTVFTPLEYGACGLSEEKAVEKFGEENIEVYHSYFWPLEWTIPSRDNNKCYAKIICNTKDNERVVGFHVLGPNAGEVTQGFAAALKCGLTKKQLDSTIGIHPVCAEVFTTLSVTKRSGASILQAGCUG
As to conditions: read-out: Inhibitory activity against thioredoxin reductase (IC50) TrxR; cellular total protein, NADPH, DTNB, 405 nm.
Procedure: The cellular total protein (i.e. thioredoxin reductase) was extracted and the concentration was determined. 30 μg of protein sample was added to a 96-well plate (3 replicate wells per concentration), and the volume was made up to 80 μL with 0.1 M sodium phosphate buffer. The protein samples were incubated in an oven at 37° C. for 30 min.
The absorbance was immediately measured at 405 nm using a microplate reader (FlexStation 3, Molecular Devices). Shaking was performed for 10 s before the first reading, and determination was performed once every 15 s, 30 times in total. The maximum reaction rate was taken as an enzymatic activity index. The experiment was independently repeated three times.

The test system of test [2] is U251MG human glioma cells. Put plainly: In-vitro anti-cancer activity screening, SRB method, U251MG. It is filed as cell-based. As to conditions: U-251. The protocol: (§1) Referring to the method of example 9, two tumor cell lines, U251MG and U251TR human glioma cells, were selected, and temozolomide and the compounds of the present disclosure were subjected to in-vitro anti-cancer activity screening using the SRB method.
In general terms: The SRB assay estimates cell density from bound dye.

For test [3], the system named is human glioma cell U87. Kind of test: Pharmacodynamic study in human glioma cell U87 subcutaneous model. As to conditions: compounds 20 mg/Kg, q.d.×14 days. It is filed as in vivo, Balb/c nude mice. The source says:
The route of administration was intragastric administration ([…]., q.d.×14 days).

The test system of another test is human glioma cells (U87). Put plainly: In-vitro growth inhibition, MTT method, U87. It is filed as cell-based. As to conditions: Glioma cell, 48 h. The protocol:
(§2) The in-vitro growth inhibitory activity of compounds 1 to 8 of the present disclosure against human glioma cells (U87 and LN229), human hepatoma cells (SMMC-7721) and human pancreatic carcinoma cells (Panc1) was studied adopting the MTT method.
U87, LN229, SMMC-7721 and Panc1 cells growing at log phase were separately inoculated into a 96-well plate at a density of 5×10^4 cells/mL, 180 μL/well. […] After 48 h of action, a 5 mg/mL MTT solution (20 μL/well) was added. After the cells were incubated in a CO2 incubator for 3 to 4 h, the supernatant was carefully discarded. After the residual liquid was air-dried, acidified isopropanol (50 μL of concentrated hydrochloric acid dissolved in 500 mL of isopropanol) was added at […], and the plate was shaken on a shaker for 30 min. After the crystals were completely dissolved, absorbance OD values were measured by a microplate reader at 570 nm.
(§3) Cell viability %=(drug-treated cell OD−blank group OD)/(control cell OD−blank group OD)×100
(§4) Cell killing rate %=1−cell viability %
On the technique in general: Tetrazolium assays rely on reduction of a dye to a coloured formazan, in cell work by metabolically active cells.

Test [4] concerns human pancreatic carcinoma cells (Panc1). Kind of test: In-vitro growth inhibition, MTT method, Panc1. It is filed as cell-based. As to conditions: PANC-1, 48 h. As for the experimental part: as §2
(§5) U87, LN229, SMMC-7721 and Panc1 cells growing at log phase were separately inoculated into a 96-well plate at a density of 5×10^4 cells/mL, 180 μL/well. After the cells were attached to the wall, 20 μL of a drug liquid was added to each well, so that the final concentrations of the drug were 0 μM, 5 μM, 10 μM, 20 μM and 50 μM. After 48 h of action, a 5 mg/mL MTT solution (20 μL/well) was added. After the cells were incubated in a CO2 incubator for 3 to 4 h, the supernatant was carefully discarded. After the residual liquid was air-dried, acidified isopropanol (50 μL of concentrated hydrochloric acid dissolved in 500 mL of isopropanol) was added at […], and the plate was shaken on a shaker for 30 min. After the crystals were completely dissolved, absorbance OD values were measured by a microplate reader at 570 nm.
as §3, §4

The subject of test [5] is human glioma cell U87. Kind of test: In-vivo antitumor activity, U87 tumor-bearing nude mice, i.g. dosing. Also noted: species or system Balb/c nude mice. As to conditions: q.d., end of the experiment; for Tumor volume: 11 days. The source says: The tumor emergence rate was 100%.
The solvent was freshly prepared when needed each day.

Test [6] deals with U251TR human glioma cells. Put plainly: In-vitro anti-cancer activity screening, SRB method, U251TR. It is filed as cell-based. As to conditions: Glioma cell, drug-resistant strain. The protocol: as §1
Test [7] has as its system human hepatoma cells (SMMC-7721). Kind of test: In-vitro growth inhibition, MTT method, SMMC-7721. It is filed as cell-based. As to conditions: 48 h. As for the experimental part:
as §2, §5, §3, §4

In test [8] the test system is human glioma cells (LN229). Kind of test: In-vitro growth inhibition, MTT method, LN229. It is filed as cell-based. As to conditions: LN-229, 48 h. As for the experimental part:
as §2, §5, §3, §4

Test [9] deals with human glioma cell U87. Put plainly: Tumor volume inhibition rate, i.v. dosing. It is filed as in vivo, Balb/c nude mice. As to conditions: Mus musculus, iv, TMZ 10 mg·kg^−1, i.v. As for the experimental part:
In addition, low-dosage 0409 (20 mg·kg^−1, i.v.) and TMZ (10 mg·kg^−1, i.v.) were synchronously used for an assay to determine the volume tumor inhibition rate.

The mark [10] stands for this setting: 0409 high-dose group 90 mg·kg^−1, i.g.
Setting [11] is: 0409 low-dose group 45 mg·kg^−1, i.g.
The mark [12] stands for this setting: 240 h, Day 10, 20 mg·kg^−1, i.v.
Where [13] appears, read: 264 h, Day 11, 20 mg·kg^−1, i.v.
The mark [14] stands for this setting: 288 h, Day 12, 20 mg·kg^−1, i.v.
Setting [15] is: 312 h, Day 13, 20 mg·kg^−1, i.v.
The mark [16] stands for this setting: 336 h, Day 14, 20 mg·kg^−1, i.v.
Where [17] appears, read: 360 h, Day 15, 20 mg·kg^−1, i.v.
Where [18] appears, read: 384 h, Day 16, 20 mg·kg^−1, i.v.
Setting [19] is: 408 h, Day 17, 20 mg·kg^−1, i.v.
The mark [20] stands for this setting: 432 h, Day 18, 20 mg·kg^−1, i.v.

By IC50 is commonly meant the midpoint of a concentration-inhibition curve. Turning to `O=c1c2ccccc2[se]n1CCCCn1[se]c2ccccc2c1=O` [BS, Butaselen], the IC50 in test [1] worked out at 1.14 ± 0.17 µM.

Broadly, the inhibition in vivo is the percentage by which the read-out fell short of the control. High values mean a strong effect, low ones a weak effect. Consider `Cn1nnc2c(C(=O)NCCn3[se]c4ccccc4c3=O)ncn2c1=O` [Compound 1, 3,4-dihydro-3-methyl-4-oxo-N-(3(2H)-oxo-1,2-benzisoselenazol-2-yl)-ethyl-imidazo[5,1-d]-1,2,3,5-tetrazine-8-carboxamide], for which the IC50 is 48.9 ± 9.33 µM in [2]; 21 ± 3.07 µM with human glioma cells (U87); 17.8 ± 3.44 µM in test [4]; 51.9 ± 21.9 µM in test [6]; 12 ± 1.57 µM in test [7]; 14.4 ± 2.24 µM in test [8]. Further, the Tumor inhibition rate with human glioma cell U87 [3] (Day 1) was 5.86%; in the test with human glioma cell U87 [3] (Day 4) it was 58.78%; in the test with human glioma cell U87 [3] (Day 7), 78.57%; with human glioma cell U87 [3] (Day 10) it was 74.77%; in the test with human glioma cell U87 [3] (Day 14 (end of the experiment)), 81.42%. In addition, the Tumor volume came out at 90.00±32.64 mm^3 in the test with human glioma cell U87 [5] (setting [10]) and 96.70±24.08 mm^3 in the test with human glioma cell U87 [5] (setting [11]). In addition, the “Tumor proliferation inhibition rate” value is given as 83.97% with human glioma cell U87 [5] (setting [10]) and 82.78% in the test with human glioma cell U87 [5] (setting [11]). Moreover, the Tumor weight in the test with human glioma cell U87 [5] (setting [10]) came to 0.12 ± 0.04 g; in the test with human glioma cell U87 [5] (setting [11]), 0.20 ± 0.10 g. For the same molecule, the inhibition in vivo at 20 mg/kg in the test with human glioma cell U87 [9] (setting [12]) is 74.8%; with human glioma cell U87 [9] (setting [13]) it was 73.8%; with human glioma cell U87 [9] (setting [14]), 69.8%; with human glioma cell U87 [9] (setting [15]), 79.8%; in the test with human glioma cell U87 [9] (setting [16]), 81.4%; in the test on human glioma cell U87 [9] (setting [17]), 80.5%. The inhibition in vivo at 20 mg/kg was found to be 78.5% with human glioma cell U87 [9] (setting [18]), 82.3% with human glioma cell U87 [9] (setting [19]) and 81.7% in the test with human glioma cell U87 [9] (setting [20]).

For `Cn1nnc2c(C(=O)NCCn3[se]c4cc(F)ccc4c3=O)ncn2c1=O` [Compound 3, 3,4-dihydro-3-methyl-4-oxo-N-(3(2H)-oxo-6-fluoro-1,2-benzisoselenazol-2-yl)-ethyl-imidazo[5,1-d]-1,2,3,5-tetrazine-8-carboxamide], the IC50 in test [2] amounted to 15.4 ± 1.25 µM; in the test on human glioma cells (U87) it was 20.4 ± 7.19 µM; in test [4], 7 ± 8.3 µM; in [6], 35.5 ± 4.97 µM; in test [7], 25.4 ± 7.19 µM; in test [8] it was 19 ± 1.3 µM. Moreover, the Tumor inhibition rate is −9.91% in the test with human glioma cell U87 [3] (Day 1); 47.90% with human glioma cell U87 [3] (Day 4); 87.76% in the test with human glioma cell U87 [3] (Day 7); 91.47% in the test with human glioma cell U87 [3] (Day 10); 88.01% with human glioma cell U87 [3] (Day 14 (end of the experiment)). Besides, the inhibition in vivo at 20 mg/kg in the test with human glioma cell U87 [9] (setting [12]) was 57.9%; with human glioma cell U87 [9] (setting [13]), 67.1%; in the test with human glioma cell U87 [9] (setting [14]), 68.4%; with human glioma cell U87 [9] (setting [15]) it was 58.8%; with human glioma cell U87 [9] (setting [16]), 72.3%; in the test with human glioma cell U87 [9] (setting [17]), 72.7%. Besides, the inhibition in vivo at 20 mg/kg in the test with human glioma cell U87 [9] (setting [18]) was determined as 78.6%; in the test on human glioma cell U87 [9] (setting [19]) it was 74.8%; with human glioma cell U87 [9] (setting [20]) it was 73.8%.

On to `Cc1ccc2c(=O)n(CCNC(=O)c3ncn4c(=O)n(C)nnc34)[se]c2c1` [Compound 8, 3,4-dihydro-3-methyl-4-oxo-N-(3(2H)-oxo-6-methyl-1,2-benzisoselenazol-2-yl)-ethyl-imidazo[5,1-d]-1,2,3,5-tetrazine-8-carboxamide], for which the IC50 in test [2] worked out at 9.13 ± 1.52 µM; in the test on human glioma cells (U87), 20.4 ± 3.13 µM; in test [4] it was 8.65 ± 3.52 µM; in test [6] it was 16.2 ± 1.67 µM; in [7] it was 3.35 ± 2.13 µM; in test [8], 13.7 ± 2.52 µM. Further, the Tumor inhibition rate in the test with human glioma cell U87 [3] (Day 1) was −0.20%; in the test on human glioma cell U87 [3] (Day 4), 58.48%; in the test on human glioma cell U87 [3] (Day 7), 83.03%; in the test on human glioma cell U87 [3] (Day 10), 80.92%; in the test on human glioma cell U87 [3] (Day 14 (end of the experiment)) it was 82.68%. The inhibition in vivo at 20 mg/kg was determined as 86.5% with human glioma cell U87 [9] (setting [12]); 86.2% in the test with human glioma cell U87 [9] (setting [13]); 87.2% in the test with human glioma cell U87 [9] (setting [14]); 88.2% in the test on human glioma cell U87 [9] (setting [15]); 92.5% with human glioma cell U87 [9] (setting [16]); 87.7% in the test with human glioma cell U87 [9] (setting [17]). Further, the inhibition in vivo at 20 mg/kg in the test on human glioma cell U87 [9] (setting [18]) is 87%; with human glioma cell U87 [9] (setting [19]), 88.5%; in the test with human glioma cell U87 [9] (setting [20]), 89.1%.

For the origin of these results see US20230167120A1, “ARYL-FUSED ISOSELENAZOLE COMPOUND CONTAINING TETRAZINE SUBSTITUENT, SYNTHESIS METHOD THEREFOR, AND USE THEREOF” (KEAISE MEDICINE WUHAN CORP., priority 2020, published 2023).
